Entries after “also recorded” stand apart in the source; their conditions may differ.

We go through three compounds from patent publication US12290527B2, “Compositions and methods for reducing major thrombotic events in cancer patients” (Beth Israel Deaconess Medical Center, Inc., priority 2018, dated 2025).

One series concerns D-dimer. As to the kind of experiment: Plasma D-dimer (Asserachrom D-Di ELISA), phase II trial in cancer patients. Type of series: in vivo, human. Here is the method: A multi-center, multi-dose phase II trial was conducted to evaluate, among other markers and readouts, the efficacy of targeting protein disulfide isomerase (PDI) along with soluble P-selectin with isoquercetin to reduce the hypercoagulability in cancer patients at high risk for venous thromboembolism (VTE). Patients received isoquercetin at 500 mg (cohort A) or 1000 mg (cohort B) daily for 56 days with laboratory assays at the beginning and at completion of study (along with duplex ultrasound). The primary endpoint was a reduction in D-dimer and the primary clinical endpoint included pulmonary embolism or proximal deep vein thrombosis, and also included measuring the level of soluble P-selectin. (See, Zwicker et al., JCI Insight.2019; 4(4):e125851.)
The primary endpoint of the study was comparison of plasma D-dimer at baseline and end-of-study. D-dimer is liberated from cross-linked fibrin following […] degradation. D-dimer is the most validated and commonly utilized laboratory assay in the clinic to detect deep vein thrombosis. In patients with advanced cancer, plasma D-dimer levels are commonly elevated and correlate with an increased risk for developing of VTE.
Participants were sequentially enrolled into two dosing cohorts: Cohort A (isoquercetin 500 mg) and Cohort B (isoquercetin 1000 mg). Isoquercetin was supplied in capsules containing 250 mg of isoquercetin each with 10 mg added as overage to guarantee a minimum of 250 mg of isoquercetin per capsule with added Vitamin C and Vitamin B3 by Quercegen Pharmaceuticals LLC (Boston, MA). The drug product capsules were manufactured by Pharmavize NV, Kleinmoer 4, 9030 Mariakerke, Belgium.
The ratio of components in the capsules was: 1:0.25:0.02 of isoquercetin, vitamin C, and vitamin B3, respectively. It is noted that folic acid can optionally be present in the isoquercetin composition. Isoquercetin was taken orally daily for a total of 56 days. The first 5 patients of each cohort were monitored for evidence of toxicity prior (≥1 grade 3 or higher toxicity possibly related to isoquercetin) prior to the subsequent enrollment of 25 patients into each cohort. Patients were monitored for development of a venous thromboembolic event throughout the study including a bilateral lower extremity duplex ultrasound at end of study visit (day 56±5). […]
Blood was drawn by peripheral venipuncture into 3.2% citrate. […] D-dimer was measured centrally using Asserrachrom D-Di ELISA, considered the reference standard assay for D-dimer (Stago, France) (Meyer G. et al., Blood Coagulation & Fibrinolysis. 1998; 9(7):603-8.).

For series [1], the system named is platelet-dependent thrombin generation. Description: Platelet-dependent thrombin generation assay on patient plasma. In kind it is in vivo, human. To be noted: follow-up vs baseline. The text has this:
The platelet-dependent thrombin generation assay measures thrombin generation following platelet activation and requires PDI. […] Correlation between PDI inhibitory activity in plasma and platelet-dependent thrombin generation confirmed the PDI-dependency of thrombin generation (Spearman coefficient 0.29, P=0.004). There was significant correlation between increased plasma PDI inhibitory activity and decreased thrombin generation (Pearson correlation coefficient 0.45, P=0.002)
Platelet-dependent thrombin generation was performed according to previously published methodology (Stopa J D et al., JCI insight. 2017;2(1):e89373; Jurk K et al. J Thromb Haemost. 2011; 9(11):2278-90). Briefly, platelet-free plasma was mixed with donor platelet-rich plasma diluted to a platelet concentration of 250,000 platelets per microliter in the presence of 5 mM GPRP and 6 mM CaCl2), and then stimulated with 0.1 U/ml of thrombin. Samples were incubated for 90 min at room temperature with rotation, and thrombin levels were measured using cleavage of a fluorescent thrombin-specific substrate (Haemtech SN-20 Boc-L-FPR-ANSNH-C2H5) by excitation at 352 nm and emission as a function of time at 470 nm. Rates of substrate cleavage were used to calculate the concentration of thrombin in each sample.

In series [2] the test system is soluble P-selectin. Description: Soluble P-selectin (CD62) in plasma, commercial ELISA. In kind it is in vivo, human. Particulars: for median change in soluble P-selectin: end-of-treatment vs baseline plasma. The text has this: P-selectin is a transmembrane adhesion receptor that is externalized from α-granules in platelets and Weibel-Palade bodies in endothelial cells following cell activation. P-selectin can be shed from the cell surface following externalization and P-selectin shedding is increased in cardiovascular disease, sepsis, and cancer. […] As PDI inhibition alters platelet and endothelial reactivity, baseline versus end-of-treatment plasma levels of soluble P-selectin following treatment with isoquercetin was compared. As shown in FIG. 6A-FIG. 6B, there was no change in soluble P-selectin in Cohort A (FIG. 6A) (median change −0.3%, P=0.26).
(§1) Measurement of soluble P-selectin (CD62) was performed centrally using a commercial ELISA (Invitrogen/ThermoFisher Scientific #BMS219-4) and prothrombin time and partial thromboplastin time according to standard manufacturer protocol on a Sago Start 4 instrument (STA-Neoplastine CI Plus 5 #00606, STA-PTT Automate 5 #00595).

Series [3] concerns prothrombin time and partial thromboplastin time. Description: Standard coagulation assays (prothrombin time, partial thromboplastin time). Type of series: in vivo, human. The method, then:
as §1

For series [4], the system named is patients with advanced cancer. Description: Venous thromboembolism monitoring (clinical and end-of-study lower extremity ultrasound). In kind it is in vivo, human. The text has this: Patients were monitored for the development of venous thromboembolism (VTE) throughout the two months of the study including an end-of-study bilateral lower extremity ultrasound to evaluate for asymptomatic lower extremity proximal DVT. Shown in FIG. 3A-FIG. 3D is the proportion of patients remaining free of VTE through the course of the study. […] There were three secondary VTE endpoints recorded in cohort A (FIG. 3C, two incidental catheter-associated DVT diagnosed with re-staging imaging and one lower extremity superficial venous clot). In cohort B (FIG. 3D), there were two secondary endpoint thrombotic events recorded (superficial venous clot of the lower extremity and incidental thrombosis observed in a lingular pulmonary vein on re-staging imaging).
(§2) The ratio of components in the capsules was: 1:0.25:0.02 of isoquercetin, vitamin C, and vitamin B3, respectively. It is noted that folic acid can optionally be present in the isoquercetin composition. Isoquercetin was taken orally daily for a total of 56 days. The first 5 patients of each cohort were monitored for evidence of toxicity prior (≥1 grade 3 or higher toxicity possibly related to isoquercetin) prior to the subsequent enrollment of 25 patients into each cohort. Patients were monitored for development of a venous thromboembolic event throughout the study including a bilateral lower extremity duplex ultrasound at end of study visit (day 56±5). Participants were taken off study if they developed an intercurrent illness that prevented further administration; unacceptable adverse events; poor compliance; participant preference; VTE or condition requiring therapeutic anticoagulation; requirement for prophylactic anticoagulation for >7 consecutive days; or grade ≥3 hemorrhage or otherwise met the ISTH criteria for major hemorrhage. Doses were held for grade 2 hemorrhage or platelet count <50×10^9/L.
The primary VTE endpoint included any symptomatic proximal or distal deep vein thrombosis, symptomatic PE or fatal PE diagnosed by autopsy, asymptomatic proximal DVT diagnosed by protocol-specified ultrasound at end of study. All suspected VTE were assessed by an independent adjudication committee that included central radiologic review of images. Criteria for new VTE included any of the following: A) A new noncompressibility of lower extremity deep venous segments by compression ultrasound (distal lower extremity thrombus qualified for primary VTE endpoint only if symptomatic). […] All other venous or arterial events were recorded and analyzed as secondary endpoints. […]

The subject of series [5] is patients with advanced cancer. As to the kind of experiment: Safety: hemorrhage (ISTH) and toxicities (CTCAE) in phase II trial. Type of series: in vivo, human.
Text: as §2
The primary VTE endpoint included any symptomatic proximal or distal deep vein thrombosis, symptomatic PE or fatal PE diagnosed by autopsy, asymptomatic proximal DVT diagnosed by protocol-specified ultrasound at end of study. All suspected VTE were assessed by an independent adjudication committee that included central radiologic review of images. Criteria for new VTE included any of the following: A) A new noncompressibility of lower extremity deep venous segments by compression ultrasound (distal lower extremity thrombus qualified for primary VTE endpoint only if symptomatic). B) Intraluminal defects in two or more views on pulmonary angiography, sudden contrast cut-off of one or more vessels greater than 2.5 mm in diameter on a pulmonary angiogram; a high probability VQ lung scan showing one or more segmental perfusion defects with corresponding normal ventilation (mismatch defect); or abnormal spiral CT showing thrombus in pulmonary vessels (subsegmental or larger). All other venous or arterial events were recorded and analyzed as secondary endpoints. Criteria for major hemorrhage was according to ISTH definition (Schulman S, and Kearon C. J Thromb Haemost. 2005; 3(4):692-4). All toxicities were graded according NCI Common Terminology Criteria for Adverse Events (CTCAE). Study oversight was performed by an independent Data Safety Monitoring Committee at Dana Farber Harvard Cancer Center.

The conditions of series [6]: isoquercetin at 500 mg; prior pharmacokinetic studies; cited from earlier work.
For series [7], the system named is soluble P-selectin. Particulars: standard anticoagulants compared in words; cited from earlier work.
Where [8] appears, read: Cohort A, isoquercetin 500 mg daily.
Where [9] appears, read: Cohort B, isoquercetin 1000 mg daily.

Regarding `O=c1c(O[C@@H]2O[C@H](CO)[C@@H](O)[C@H](O)[C@H]2O)c(-c2ccc(O)c(O)c2)oc2cc(O)cc(O)c12` [isoquercetin, 2-(3,4-Dihydroxyphenyl)-5,7-dihydroxy-3-[(2S,3R,4S,5S,6R)-3,4,5-trihydroxy-6-(hydroxymethyl)oxan-2-yl]oxychromen-4-one], in the series with D-dimer (Cohort B, 1000 mg daily, paired samples), the “individuals with reduced D-dimer” value was 18 of 22. The “median change in D-dimer” value in the series with D-dimer (Cohort B, isoquercetin 1000 mg daily oral, 56 days, baseline vs end-of-study, cancer patients) is −21.9%. Further, the “median decrease of D-dimer plasma concentrations” value in the series with D-dimer (isoquercetin 1000 mg daily, 56 days, printed as decrease without sign) came out at 21.9%. In addition, the “reduction of D-dimer levels (in words)” value in the series with D-dimer (lower dose, isoquercetin 500 mg) is listed as “did not reduce D-dimer levels”. In addition, the “median change in platelet-dependent thrombin generation” value in series [1] (setting [8]) is −31.1%; in series [1] (setting [9]) it was −57.2%. In addition, the figures for the “median change in soluble P-selectin” value with soluble P-selectin [2] (setting [8]) and with soluble P-selectin [2] (setting [9]) were −0.3% and −57.9%, respectively. For the same compound, in the series with soluble P-selectin [2] (setting [9]), the “patients with decreased soluble P-selectin (in words)” value was “decreased in all patients except one”. Besides, the “mean PT at 2-months” value in series [3] (Cohort A, 500 mg daily, baseline 14.0 seconds) worked out at 14.3 s; in series [3] (Cohort B, 1000 mg daily, baseline 15.1 seconds) it was 15.2 s. Also, the “mean PTT at study completion” value in series [3] (Cohort A, 500 mg daily, baseline 49.6 seconds) came out at 45.6 s. In addition, in series [3] (Cohort B, 1000 mg daily, baseline 54.2 seconds), the “mean PTT at 2-months” value stood at 51.9 s. In addition, the “effects in standard coagulation assays (in words)” value in series [3] (following administration of isoquercetin, both cohorts) is “no effects detected”. The “secondary VTE endpoints recorded” value in series [4] (Cohort A, 500 mg daily, two catheter-associated DVT, one superficial venous clot) is on record as “three”. For the same compound, the “secondary endpoint thrombotic events recorded” value in series [4] (Cohort B, 1000 mg daily, superficial venous clot, lingular pulmonary vein thrombosis) is reported as “two”. Moreover, the “primary VTE endpoint events” value in series [4] (both cohorts (500 mg and 1000 mg daily), 2-month study) is reported as “no VTE that met criteria for the primary VTE endpoint; also recorded: no primary VTE endpoints observed”. In addition, the “proximal deep vein thrombosis, pulmonary emboli, or major hemorrhage observed” value in series [4] (treated patients, cancer population at higher risk for thrombosis and hemorrhage) is “none of the following were observed”. The “patients developing grade 1 epistaxis” value in series [5] (Cohort A, 500 mg daily) is “One”. Also, in series [5] (Cohort B, 1000 mg daily, grade 1 hemorrhoid and grade 2 rectal bleeding), the “patients developing non-severe gastrointestinal bleeding” value was “two”. For the same compound, the “severe adverse events (grade 3 or 4) attributed to isoquercetin” value in series [5] (both cohorts) is given as “no severe adverse events (grade 3 or 4); also recorded: No grade 3 or 4 toxicities were reported”. The major hemorrhages entry in series [5] (both cohorts, modified intention-to treat analyses) is given as “no major hemorrhages observed”. Besides, the “most commonly reported toxicities on study” value in series [5] (common toxicities of the concurrent chemotherapeutics) is “nausea and diarrhea”. Besides, the “deaths during the 2 months of follow-up” value in series [5] (following initiation of isoquercetin) is on record as “no deaths reported”. Moreover, the “plasma concentrations relative to IC50 of PDI activity in vitro” value in series [6] is on record as “fall below the inhibitory concentration (IC50) of PDI activity in vitro”.

Turning to `O=C(NC[C@H]1CN(c2ccc(N3CCOCC3=O)cc2)C(=O)O1)c1ccc(Cl)s1` [rivaroxaban], in the series on soluble P-selectin [7], the “lowering of soluble P-selectin levels (activity shared with isoquercetin or not)” value is reported as “not shared”.

In the case of `CC(=O)CC(c1ccccc1)c1c(O)c2ccccc2oc1=O` (stereo not drawn) [warfarin], in the series with soluble P-selectin [7], the “lowering of soluble P-selectin levels (activity shared with isoquercetin or not)” value is “not shared”.
